Measured values from patent US9725445B2, “Cycloalkyl nitrile pyrazolo pyridones as Janus kinase inhibitors” (Merck Sharp & Dohme Corp., priority 2013, dated 2017).

Legend:
JAK2 = JAK2 (Homo sapiens (Human), UniProt O60674); assay: Jak biochemical HTRF assay, JAK2; conditions: HTRF biochemical assay, recombinant GST-tagged catalytic domain; read-out: JAK2 IC50
JAK1 = JAK1 (Homo sapiens (Human), UniProt P23458); assay: Jak biochemical HTRF assay, JAK1; conditions: HTRF biochemical assay, recombinant GST-tagged catalytic domain; read-out: JAK1 IC50
JAK1, sequence (P23458 875-1153): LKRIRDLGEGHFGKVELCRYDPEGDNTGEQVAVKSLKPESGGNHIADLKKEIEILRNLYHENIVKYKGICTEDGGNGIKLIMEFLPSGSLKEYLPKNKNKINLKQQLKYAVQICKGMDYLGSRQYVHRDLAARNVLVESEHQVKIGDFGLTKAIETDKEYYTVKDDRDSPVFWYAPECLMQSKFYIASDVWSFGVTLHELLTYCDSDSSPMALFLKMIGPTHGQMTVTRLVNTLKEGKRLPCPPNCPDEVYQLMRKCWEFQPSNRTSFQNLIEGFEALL

JAK2, sequence (O60674 849-1124): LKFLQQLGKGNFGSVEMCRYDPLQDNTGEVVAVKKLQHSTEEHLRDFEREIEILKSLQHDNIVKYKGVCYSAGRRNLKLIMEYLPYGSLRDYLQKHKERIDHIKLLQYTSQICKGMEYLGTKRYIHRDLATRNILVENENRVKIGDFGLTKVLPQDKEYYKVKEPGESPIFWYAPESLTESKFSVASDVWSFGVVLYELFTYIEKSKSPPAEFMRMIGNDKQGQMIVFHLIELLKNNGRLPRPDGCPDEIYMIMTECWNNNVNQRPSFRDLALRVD

Structure (SMILES) | IC50 (JAK2) [nM] | IC50 (JAK1) [nM]
N#C[C@H]1CCCC[C@@H]1n1nc(Nc2ccc([C@@H](N)C(F)(F)F)cc2)c2c(=O)[nH]ccc21 [Example 7-3, (1S,2S)-2-[3-({4-[(1R)-1-amino-2,2,2-trifluoroethyl]phenyl}amino)-4-oxo-4,5-dihydro-1H-pyrazolo[4,3-c]pyridin-1-yl]cyclohexanecarbonitrile] | 0.37 | 0.12
N#C[C@@H]1CCCC[C@H]1n1nc(Nc2ccc(CS(=O)(=O)N3CCCC3)cc2)c2c(=O)[nH]ccc21 [Example 3-3, (1R,2R)-2-(4-oxo-3-((4-((pyrrolidin-1-ylsulfonyl)methyl)phenyl)amino)-4,5-dihydro-1H-pyrazolo[4,3-c]pyridin-1-yl)cyclohexanecarbonitrile] | 21 | 6.1
CSCc1cc(Cn2ccnn2)cc(Nc2nn([C@H]3CCCC[C@@H]3C#N)c3cc[nH]c(=O)c23)c1 [Example 3-78, (1S,2S)-2-[3-({3-[(methylsulfanyl)methyl]-5-(1H-1,2,3-triazol-1-ylmethyl)phenyl}amino)-4-oxo-4,5-dihydro-1H-pyrazolo[4,3-c]pyridin-1-yl]cyclohexanecarbonitrile] | 4.4 | 2
N#C[C@H]1CCCC[C@@H]1n1nc(Nc2ccc3c(c2)CN(C2CCOCC2)C3=O)c2c(=O)[nH]ccc21 [Example 15-59, (1S,2S)-2-(4-oxo-3-{[1-oxo-2-(tetrahydro-2H-pyran-4-yl)-2,3-dihydro-1H-isoindol-5-yl]amino}-4,5-dihydro-1H-pyrazolo[4,3-c]pyridin-1-yl)cyclohexanecarbonitrile] | 0.41 | 0.078
CC(O)c1cccc(Nc2nn([C@H]3CCCC[C@@H]3C#N)c3cc[nH]c(=O)c23)c1 (stereo partly drawn) [Example 3-31, (1S,2S)-2-(3-{[3-(1-hydroxyethyl)phenyl]amino}-4-oxo-4,5-dihydro-1H-pyrazolo[4,3-c]pyridin-1-yl)cyclohexanecarbonitrile] | 1.7 | 0.46
C[C@H](NC1CCC(n2nc(Nc3ccc(Cl)cc3)c3c(=O)[nH]ccc32)C(C#N)C1)C1CC1 (stereo in doubt) [Example 4-4, (1S,2S,5S)-2-(3-((4-Chlorophenyl)amino)-4-oxo-4,5-dihydro-1H-pyrazolo[4,3-c]pyridin-1-yl)-5-(((S)-1-cyclopropylethyl)amino)cyclohexanecarbonitrile] | 525 | 7.8
N#C[C@H]1CCC[C@@H]1n1nc(Nc2ccnc(F)c2)c2c(=O)[nH]ccc21 [Example 3-92, (1S,2S)-2-{3-[(2-fluoropyridin-4-yl)amino]-4-oxo-4,5-dihydro-1H-pyrazolo[4,3-c]pyridin-1-yl}cyclopentanecarbonitrile] | 5.7 | 0.64
COC(C)(c1ccc(Nc2nn([C@H]3CCCC[C@@H]3C#N)c3cc[nH]c(=O)c23)cc1)C(F)(F)F (single isomer, unassigned) [Example 3-125, (1S,2S)-2-(4-oxo-3-((4-((R or S)-1,1,1-trifluoro-2-methoxypropan-2-yl)phenyl)amino)-4,5-dihydro-1H-pyrazolo[4,3-c]pyridin-1-yl)cyclohexanecarbonitrile] | 0.86 | 0.32
CN(C)Cc1cccc(Nc2nn([C@H]3CCCC[C@@H]3C#N)c3cc[nH]c(=O)c23)c1 [Example 3-34, (1S,2S)-2-[3-({3-[(dimethylamino)methyl]phenyl}amino)-4-oxo-4,5-dihydro-1H-pyrazolo[4,3-c]pyridin-1-yl]cyclohexanecarbonitrile] | 1.1 | 1.1
CC(C)N1Cc2ccc(Nc3nn([C@H]4CCCC[C@@H]4C#N)c4cc[nH]c(=O)c34)cc2C1 [Example 3-74, (1S,2S)-2-(3-{[2-(1-methylethyl)-2,3-dihydro-1H-isoindol-5-yl]amino}-4-oxo-4,5-dihydro-1H-pyrazolo[4,3-c]pyridin-1-yl)cyclohexanecarbonitrile] | 0.29 | 0.14
N#C[C@H]1CCCC[C@@H]1n1nc(Nc2ccc(Cn3ccnn3)cc2)c2c(=O)[nH]ccc21 [Example 3-46, (1S,2S)-2-(4-oxo-3-{[4-(1H-1,2,3-triazol-1-ylmethyl)phenyl]amino}-4,5-dihydro-1H-pyrazolo[4,3-c]pyridin-1-yl)cyclohexanecarbonitrile] | 0.34 | 0.095
N#C[C@H]1CCCC[C@@H]1n1nc(Nc2cccc(CN3CCOCC3)c2)c2c(=O)[nH]ccc21 [Example 3-33, (1S,2S)-2-(3-{[3-(morpholin-4-ylmethyl)phenyl]amino}-4-oxo-4,5-dihydro-1H-pyrazolo[4,3-c]pyridin-1-yl)cyclohexanecarbonitrile] | 1.7 | 1.3
Cc1cc(Nc2nn([C@H]3CCCC[C@@H]3C#N)c3cc[nH]c(=O)c23)ccc1C(=O)N1CCOCC1 [Example 3-68, (1S,2S)-2-(3-{[3-methyl-4-(morpholin-4-ylcarbonyl)phenyl]amino}-4-oxo-4,5-dihydro-1H-pyrazolo[4,3-c]pyridin-1-yl)cyclohexanecarbonitrile] | 0.28 | 0.47
N#C[C@H]1CCCC[C@@H]1n1nc(Nc2ccc(CNCC(F)(F)F)cc2)c2c(=O)[nH]ccc21 [Example 3-57, (1S,2S)-2-{4-oxo-3-[(4-{[(2,2,2-trifluoroethyl)amino]methyl}phenyl)amino]-4,5-dihydro-1H-pyrazolo[4,3-c]pyridin-1-yl}cyclohexanecarbonitrile] | 0.53 | 0.2
N#C[C@H]1CCCC[C@@H]1n1nc(Nc2ccc3c(c2)CNCC3)c2c(=O)[nH]ccc21 [Example 3-157, (1S,2S)-2-[4-oxo-3-(1,2,3,4-tetrahydroisoquinolin-7-ylamino)-4,5-dihydro-1H-pyrazolo[4,3-c]pyridin-1-yl]cyclohexanecarbonitrile] | 0.88 | 0.45
C[C@H](N[C@H]1CC[C@H](n2nc(Nc3ccc(OC(F)(F)F)cc3)c3c(=O)[nH]ccc32)[C@@H](C#N)C1)C1CC1 [Example 5-28, (1S,2S,5S)-5-(((S)-1-cyclopropylethyl)amino)-2-(4-oxo-3-((4-(trifluoromethoxy)phenyl)amino)-4,5-dihydro-1H-pyrazolo[4,3-c]pyridin-1-yl)cyclohexanecarbonitrile] | 37 | 0.5
N#C[C@H]1C[C@@H](N2CCC2)CC[C@@H]1n1nc(Nc2ccc(Cl)c(F)c2)c2c(=O)[nH]ccc21 [Example 5-4, (1S,2S,5S)-5-(azetidin-1-yl)-2-(3-((4-chloro-3-fluorophenyl)amino)-4-oxo-4,5-dihydro-1H-pyrazolo[4,3-c]pyridin-1-yl)cyclohexanecarbonitrile] | 31 | 1.7
N#C[C@H]1CCCC[C@@H]1n1nc(Nc2cc(F)cc(CN)c2)c2c(=O)[nH]ccc21 [Example 6-3, (1S,2S)-2-(3-((3-(aminomethyl)-5-fluorophenyl)amino)-4-oxo-4,5-dihydro-1H-pyrazolo[4,3-c]pyridin-1-yl)cyclohexanecarbonitrile] | 2.3 | 1.4
N#C[C@H]1CCCC[C@@H]1n1nc(Nc2ccc3c(c2)CN(CC(F)(F)F)S3(=O)=O)c2c(=O)[nH]ccc21 [Example 3-58, (1S,2S)-2-(3-{[1,1-dioxido-2-(2,2,2-trifluoroethyl)-2,3-dihydro-1,2-benzisothiazol-5-yl]amino}-4-oxo-4,5-dihydro-1H-pyrazolo[4,3-c]pyridin-1-yl)cyclohexanecarbonitrile] | 0.58 | 0.05
CC(C)(C)OC(=O)NCc1cccc(Nc2nn([C@H]3CCCC[C@@H]3C#N)c3cc[nH]c(=O)c23)c1 [Example 3-16, tert-butyl [3-({1-[(1S,2S)-2-cyanocyclohexyl]-4-oxo-4,5-dihydro-1H-pyrazolo[4,3-c]pyridin-3-yl}amino)benzyl]carbamate] | 3.3 | 1.4
N#C[C@H]1CCCC[C@@H]1n1nc(Nc2cccc(CNCC(F)(F)F)c2)c2c(=O)[nH]ccc21 [Example 3-39, (1S,2S)-2-{4-oxo-3-[(3-{[(2,2,2-trifluoroethyl)amino]methyl}phenyl)amino]-4,5-dihydro-1H-pyrazolo[4,3-c]pyridin-1-yl}cyclohexanecarbonitrile] | 1.8 | 0.64
CC(O)(CO)c1cc(Nc2nn([C@H]3CCCC[C@@H]3C#N)c3cc[nH]c(=O)c23)ccc1S(C)(=O)=O (stereo partly drawn) [Example 3-87, (1S,2S)-2-(3-{[3-(1,2-dihydroxy-1-methylethyl)-4-(methylsulfonyl)phenyl]amino}-4-oxo-4,5-dihydro-1H-pyrazolo[4,3-c]pyridin-1-yl)cyclohexanecarbonitrile] | 0.95 | 0.25
N#C[C@H]1CCCC[C@@H]1n1nc(Nc2ccc(-c3noc(=O)[nH]3)cc2)c2c(=O)[nH]ccc21 [Example 15-17, (1S,2S)-2-(4-oxo-3-{[4-(5-oxo-4,5-dihydro-1,2,4-oxadiazol-3-yl)phenyl]amino}-4,5-dihydro-1H-pyrazolo[4,3-c]pyridin-1-yl)cyclohexanecarbonitrile] | 2.9 | 0.17
CN(C)[C@@H]1CC[C@H](n2nc(Nc3ccc(Cl)c(F)c3)c3c(=O)[nH]ccc32)[C@@H](C#N)C1 [Example 5-1, (1S,2S,5R)-2-(3-((4-Chloro-3-fluorophenyl)amino)-4-oxo-4,5-dihydro-1H-pyrazolo[4,3-c]pyridin-1-yl)-5-(dimethylamino)cyclohexanecarbonitrile] | 19 | 1.5
C[C@H](NC1CCC(n2nc(Nc3ccc(Cl)cc3)c3c(=O)[nH]ccc32)C(C#N)C1)C1CC1 (stereo in doubt) [Example 4-1, (1R,2R,5S)-2-(3-((4-Chlorophenyl)amino)-4-oxo-4,5-dihydro-1H-pyrazolo[4,3-c]pyridin-1-yl)-5-(((S)-1-cyclopropylethyl)amino)cyclohexanecarbonitrile] | 122 | 5.3
